According to patent US11040028B2, “Penicinotam derivative, preparation method and use thereof” (OCEAN UNIVERSITY OF CHINA, priority 2017, dated 2021):

How the values were obtained:
Type in all cases: cell-based
[1] = test system: BHK-21 cells; assay: Anti-fibrosis activity test: inhibition of BHK-21 cell proliferation (CCK-8); details: Mesocricetus auratus, BHK-21, 48 h
How it was run: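 BHK-21 cells seeded at 2×10^4 cells/mL, allowed to adhere 24 h at 37° C, 5% CO2, then exposed to compounds at graded concentrations in triplicate for 48 h. CCK-8 added for 2 h and absorbance read at 450 nm; inhibition rate taken as (1−Ai/Ao)×100% and IC50 fitted.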

[2] = test system: human lung fibroblasts HFL1; assay: Anti-fibrosis activity test: inhibition of proliferation of human lung fibroblasts HFL1 (CCK-8); details: Homo sapiens, HFL1, 48 h
How it was run: (§1)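 48 h compound treatment of fibroblast-type cells seeded at 2×10^4 cells/mL, 37° C, 5% CO2; viability by CCK-8 (2 h, A450). Inhibition rate calculated against blank control, IC50 by curve fitting; pirfenidone served as reference.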

[3] = test system: human hepatic stellate cells LX-2; assay: Anti-fibrosis activity test: inhibition of proliferation of human hepatic stellate cells LX-2 (CCK-8); details: Homo sapiens, 48 h
How it was run: as §1

[4] = test system: human fibrosarcoma cells HT-1080; assay: Anti-fibrosis activity test: inhibition of proliferation of human fibrosarcoma cells HT-1080 (CCK-8); details: Homo sapiens, HT-1080, 48 h
How it was run: as §1

[5] = test system: human dermal fibroblasts CCC-ESF-1; assay: Anti-fibrosis activity test: inhibition of proliferation of human dermal fibroblasts CCC-ESF-1 (CCK-8); details: Fibroblast
How it was run: as §1

[6] = test system: human embryonic lung fibroblast IMR-90; assay: Anti-fibrosis activity test: inhibition of proliferation of human embryonic lung fibroblast IMR-90 (CCK-8)
How it was run: as §1

[7] = test system: cardiac fibroblast RAT-iCell-C002; assay: Anti-fibrosis activity test: inhibition of proliferation of cardiac fibroblast RAT-iCell-C002 (CCK-8); details: Cardiac fibroblast, 48 h
How it was run: as §1

[8] = test system: NF-κB; assay: Immunological activity test: inhibition of NF-κB activity; details: initial concentration of 30 μM; a/b isomers given as first/second symbol; read-out: IC50 (μM), inhibitory activity against NF-κB
How it was run: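 Compounds were first screened for inhibition of NF-κB activity at 30 μM, with parthenolide as the positive control. IC50 values were then determined for the compounds by further analysis of the assay data.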

[9] = test system: mouse macrophages (RAW264.7); assay: Lipopolysaccharide-induced NO secretion in macrophages (Griess); details: Mus musculus, RAW264.7, 24 h, RAW264.7, LPS 1 μg/ml, a/b isomers given as first/second symbol, read-out: IC50 (μM), inhibition of lipopolysaccharide-induced NO secretion in macrophages
How it was run: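 RAW264.7 macrophages in DMEM with 10% FBS received test samples at several concentrations and were stimulated with 1 μg/ml LPS for 24 h. NO in the supernatant was measured with the Griess reagent at 548 nm, […].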

[10] = CCK-8, 48 hours after administration
[11] = human lung fibroblasts HFL1, CCK-8, 48 hours
[12] = human hepatic stellate cells LX-2, CCK-8, 48 hours
[13] = human fibrosarcoma cells HT-1080, CCK-8, 48 hours
[14] = human dermal fibroblasts CCC-ESF-1, CCK-8, 48 hours
[15] = human embryonic lung fibroblast IMR-90, CCK-8, 48 hours
[16] = cardiac fibroblast RAT-iCell-C002, CCK-8, 48 hours
[17] = Homo sapiens, CCC-ESF-1 cells, 48 h, CCK-8
[18] = Homo sapiens, IMR-90 cells, 48 h, CCK-8

| Compound | IC50 [1, 10] [mM] | IC50 [2, 11] [mM] | IC50 [3, 12] [mM] | IC50 [4, 13] [mM] | IC50 [5, 14] [mM] | IC50 [6, 15] [mM] | IC50 [7, 16] [mM] | IC50 [8] [µM] | IC50 [9] [µM] | IC50 ([1]; 48 h, CCK-8) [mM] | IC50 ([2]; HFL1 cells, 48 h, CCK-8) [mM] | IC50 ([3]; LX-2, 48 h, LX-2 cells, CCK-8) [mM] | IC50 ([4]; HT-1080 cells, 48 h, CCK-8) [mM] | IC50 [5, 17] [mM] | IC50 [6, 18] [mM] | IC50 ([7]; RAT-iCell-C002 cells, CCK-8) [mM] |
| --- | --- | --- | --- | --- | --- | --- | --- | --- | --- | --- | --- | --- | --- | --- | --- | --- |
| O=C1c2c(nc3cc(F)ccc3c2O)-c2cccn21 [Compound 488b, 6-fluoro-9-hydroxy-10H-pyrrolizino[1,2-b]quinolin-10-one] | 0.05 to 5 | 0.05 to 5 | 0.05 to 5 | 0.05 to 5 | 0.05 to 5 | 0.05 to 5 | 0.05 to 5 | 10 to 50 | 1 to 10 | – | – | – | – | – | – | – |
| Cc1cc2[nH]c3c(c(=O)c2cc1C)C(=O)n1cccc1-3 [Compound 756a, 6,7-Dimethyl-9H-pyrrolizino[1,2-b]quinoline-9,10(4H)-dione] | – | – | – | – | – | – | – | 1 to 10 | 0.1 to 1 | 0.05 to 5 | 0.05 to 5 | 0.05 to 5 | 0.05 to 5 | 0.05 to 5 | 0.05 to 5 | 0.05 to 5 |
| COc1ccc2c(O)c3c(nc2c1)-c1cccn1C3=O [Compound 560b, 9-hydroxy-6-methoxy-10H-pyrrolizino[1,2-b]quinolin-10-one] | 0.05 to 5 | 0.05 to 5 | 0.05 to 5 | 0.05 to 5 | 0.05 to 5 | 0.05 to 5 | 0.05 to 5 | 1 to 10 | 1 to 10 | – | – | – | – | – | – | – |
| O=C1c2c(nc3ccccc3c2OCc2c(F)cccc2F)-c2cccn21 [Compound 615b, 9-((2,6-difluorobenzyl)oxy)-10H-pyrrolizino[1,2-b]quinolin-10-one] | 0.05 to 5 | 0.05 to 5 | 0.05 to 5 | 0.05 to 5 | 0.05 to 5 | 0.05 to 5 | 0.05 to 5 | 10 to 50 | 10 to 50 | – | – | – | – | – | – | – |
| O=C1c2c(nc3ccccc3c2OCc2ccccc2I)-c2cccn21 [Compound 576b, 9-((2-iodobenzyl)oxy)-10H-pyrrolizino[1,2-b]quinolin-10-one] | 0.05 to 5 | 0.05 to 5 | 0.05 to 5 | 0.05 to 5 | 0.05 to 5 | 0.05 to 5 | 0.05 to 5 | 1 to 10 | 1 to 10 | – | – | – | – | – | – | – |
| O=C1c2c(nc3ccccc3c2OCc2ccc(C(F)(F)F)cc2)-c2cccn21 [Compound 591b, 9-((4-(trifluoromethyl)benzyl)oxy)-10H-pyrrolizino[1,2-b]quinolin-10-one] | 0.05 to 5 | 0.05 to 5 | 0.05 to 5 | 0.05 to 5 | 0.05 to 5 | 0.05 to 5 | 0.05 to 5 | 0.1 to 1 | 1 to 10 | – | – | – | – | – | – | – |
| O=C1c2c(nc3ccccc3c2OCCN2CCCCC2)-c2cccn21 [Compound 665b, 9-(2-(piperidin-1-yl)ethoxy)-10H-pyrrolizino[1,2-b]quinolin-10-one] | – | – | – | – | – | – | – | 1 to 10 | 1 to 10 | 0.05 to 5 | 0.05 to 5 | 0.05 to 5 | 0.05 to 5 | 0.05 to 5 | 0.05 to 5 | 0.05 to 5 |
| C#CCOc1c2c(nc3ccccc13)-c1cccn1C2=O [Compound 7b, 9-(prop-2-yn-1-yloxy)-10H-pyrrolizino[1,2-b]quinolin-10-one] | 0.05 to 5 | 0.05 to 5 | 0.05 to 5 | 0.05 to 5 | < 0.05 | 0.05 to 5 | 0.05 to 5 | 1 to 10 | 0.1 to 1 | – | – | – | – | – | – | – |
| O=C1c2c(c(=O)c3ccccc3n2CCCN2CCOCC2)-c2cccn21 [Compound 787a, 6-(3-Morpholinopropyl)-5H-pyrrolizino[2,1-b]quinoline-5,11(6H)-dione] | – | – | – | – | – | – | – | 1 to 10 | 10 to 50 | 0.05 to 5 | 0.05 to 5 | 0.05 to 5 | 0.05 to 5 | 0.05 to 5 | 0.05 to 5 | 0.05 to 5 |
| CN(C)CCOc1c2c(nc3ccccc13)-c1cccn1C2=O [Compound 12b, 9-(2-(dimethylamino)ethoxy)-10H-pyrrolizino[1,2-b]quinolin-10-one] | 0.05 to 5 | 0.05 to 5 | 0.05 to 5 | 0.05 to 5 | 0.05 to 5 | 0.05 to 5 | 0.05 to 5 | 1 to 10 | 1 to 10 | – | – | – | – | – | – | – |
| O=C1c2c(nc3cccc(Cl)c3c2OCc2ccc(Cl)cc2)-c2cccn21 [Compound 477b, 8-chloro-9-((4-chlorobenzyl)oxy)-10H-pyrrolizino[1,2-b]quinolin-10-one] | 0.05 to 5 | 0.05 to 5 | 0.05 to 5 | 0.05 to 5 | 0.05 to 5 | 0.05 to 5 | 0.05 to 5 | 10 to 50 | 1 to 10 | – | – | – | – | – | – | – |
| CCOCCCn1c2c(c(=O)c3ccccc31)C(=O)n1cccc1-2 [Compound 672a, 4-(3-Ethoxypropyl)-9H-pyrrolizino[1,2-b]quinoline-9,10(4H)-dione] | – | – | – | – | – | – | – | 1 to 10 | 1 to 10 | 0.05 to 5 | 0.05 to 5 | 0.05 to 5 | 0.05 to 5 | 0.05 to 5 | 0.05 to 5 | 0.05 to 5 |
| N#Cc1ccc2nc3c(c(O)c2c1)C(=O)n1cccc1-3 [Compound 222b, 9-hydroxy-10-oxo-10H-pyrrolizino[1,2-b]quinoline-7-carbonitrile] | 0.05 to 5 | 0.05 to 5 | 0.05 to 5 | 0.05 to 5 | 0.05 to 5 | 0.05 to 5 | 0.05 to 5 | 1 to 10 | 1 to 10 | – | – | – | – | – | – | – |
| O=C1c2c([nH]c3c(F)cccc3c2=O)-c2cccn21 [Compound 444a, 5-Fluoro-9H-pyrrolizino[1,2-b]quinoline-9,10(4H)-dione] | 0.05 to 5 | 0.05 to 5 | 0.05 to 5 | 0.05 to 5 | 0.05 to 5 | 0.05 to 5 | 0.05 to 5 | 1 to 10 | 0.1 to 1 | – | – | – | – | – | – | – |
| O=C(Cn1c2c(c(=O)c3ccccc31)C(=O)n1cccc1-2)c1ccc(-c2ccccc2)cc1 [Compound 50a, 4-(2-([1,1′-Biphenyl]-4-yl)-2-oxoethyl)-9H-pyrrolizino[1,2-b]quinoline-9,10(4H)-dione] | 0.05 to 5 | 0.05 to 5 | 5 to 20 | 0.05 to 5 | 0.05 to 5 | 5 to 20 | 5 to 20 | 1 to 10 | 1 to 10 | – | – | – | – | – | – | – |
| CCCOCCOc1c2c(nc3ccccc13)-c1cccn1C2=O [Compound 671b, 9-(2-propoxyethoxy)-10H-pyrrolizino[1,2-b]quinolin-10-one] | – | – | – | – | – | – | – | 0.1 to 1 | 1 to 10 | 0.05 to 5 | 0.05 to 5 | 0.05 to 5 | 0.05 to 5 | 0.05 to 5 | 0.05 to 5 | 0.05 to 5 |
| N#Cc1ccccc1COc1c2c(nc3ccccc13)-c1cccn1C2=O [Compound 577b, 2-(((10-oxo-10H-pyrrolizino[1,2-b]quinolin-9-yl)oxy)methyl)benzonitrile] | 0.05 to 5 | 0.05 to 5 | 0.05 to 5 | 0.05 to 5 | 0.05 to 5 | 0.05 to 5 | 0.05 to 5 | 1 to 10 | 1 to 10 | – | – | – | – | – | – | – |
| Cc1ccc2n1C(=O)c1nc3ccccc3c(O)c1-2 [Compound 799b, 11-hydroxy-3-methyl-5H-pyrrolizino[2,1-b]quinolin-5-one] | – | – | – | – | – | – | – | 1 to 10 | 1 to 10 | 0.05 to 5 | 0.05 to 5 | 0.05 to 5 | 0.05 to 5 | 0.05 to 5 | 0.05 to 5 | 0.05 to 5 |
